From patent US20050267166A1, “Continuous dosing regimen” (priority 2004, published 2005)

How the values were obtained:
[1] = tested on: NCI-H460 human non-small cell lung carcinoma; assay: NCI-H460 xenograft model; type: in vivo
Text: NCI-H460 is a human non-small cell lung carcinoma derived cell line. It is MDR negative, has wild type p53, and contains an oncogenic K-ras mutation.

HT-29 colon carcinoma = assay: HT-29 colon flank xenograft model (staged); type: in vivo, human
Method: (§1) Following inoculation of tumor cells, tumors were passaged three times in mice before using the fragments to generate single cell suspensions. Multiple animals were used as donors. Single cell suspensions were generated by homogenizing the minced tumor tissue in RPMI 1640 media. Cell suspensions were washed three times to remove debris and other foreign materials. Viable cells were counted by trypan blue exclusion technique using a hemocytometer. Mice were injected subcutaneously with 0.5 mL of the cell suspension containing 1×10^6 cells.
On day 10, mice bearing established tumors were size matched and grouped at about 236 mm^3.

Calu-6 lung carcinoma = assay: Calu-6 NSCL flank xenograft model (staged); type: in vivo, human
Method: as §1
On day 10, mice bearing established tumors were size matched and grouped at about 233 mm^3.

[2] = tested on: MDA-MB-468 breast carcinoma; assay: MDA-MB-468 breast flank xenograft model (staged); type: in vivo, human
Method: as §1
For determination of the efficacy of N-(2-((4-hydroxyphenyl)amino)pyrid-3-yl)-4-methoxybenzenesulfonamide in the MDA-MB-468 Breast Flank Xenograft model, tumor cells derived from serially passaged tumor fragments were inoculated subcutaneously in female nude mice on day 0. On day 10, mice bearing established tumors were size matched and grouped at about 231 mm^3.

H-81 gastric cancer = assay: human tumor xenograft in nude mice, H-81; type: in vivo; details: Q5D × 5, 300 mg/kg/day
SC-6 gastric cancer = assay: human tumor xenograft in nude mice, SC-6; type: in vivo; details: Q5D × 5, 500 mg/kg/day
LC-6 lung cancer = assay: human tumor xenograft in nude mice, LC-6; type: in vivo; details: Q5D × 5, 450 mg/kg/day
LX-1 lung cancer = assay: human tumor xenograft in nude mice, LX-1; type: in vivo; details: Q1D × 20, 120 mg/kg/day
H-31 breast cancer = assay: human tumor xenograft in nude mice, H-31; type: in vivo; details: Q1D × 19, 80 mg/kg/day
[3] = MTD and safety in the 7-day and 21-day QD regimens in patients; type: in vivo
Method: In the 7-day QD regimen, the 250 mg QD dose has been determined to be the MTD, as dose limiting toxicities of peripheral neuropathy/ileus were reported in 2 of 6 subjects at the 300 mg QD dose.
The tumor types studied were colorectal (23), sarcoma (5), mesothelioma (3), salivary gland (2), endometrial (2), unknown (2), hepatoma (1), melanoma (1), renal cell (1), lung (1), ovary (1), and granulosa cell (1). […] Doses were escalated by 50 mg/day (25 mg twice per day). Three patients were initially treated at each dose level. […] If additional patients experienced dose-limiting toxicity, on occasion the dose level was expanded to nine patients to further assess tolerability. Response assessment was performed every two cycles.

[4] = tested on: M5076 transplantable murine reticulum cell sarcoma
[5] = oral 75 mg/kg/d QD, d 10-14, 20-24
[6] = oral 100 mg/kg/d QD, d 10-14, 20-24
[7] = 150 mg/kg orally once a day for 5 days

Compound: COc1ccc(S(=O)(=O)Nc2cccnc2Nc2ccc(O)cc2)cc1 [ABT-751, N-(2-((4-hydroxyphenyl)amino)pyrid-3-yl)-4-methoxybenzenesulfonamide]
- T/C, mean tumor volume ([1]; day 13): 58%
- ILS (delay in tumor growth) ([1]; in vivo): 32%
- efficacy in the NCI-H460 xenograft model ([1]; in words): good efficacy
- antitumor activity as single agent (HT-29 colon carcinoma; 100 and 75 mg/kg/day, (5 days on/5 days off)×2): significant antitumor activity
- response in combination with 5-fluorouracil (HT-29 colon carcinoma; in combination with 5-fluorouracil at 30 mg/kg/day, higher doses): additive responses
- % T/C (HT-29 colon carcinoma; oral 50 mg/kg/d QD, d 1-21): 55%
- % ILS (HT-29 colon carcinoma; [5]): 50%
- % T/C (HT-29 colon carcinoma; [5]): 43%
- % T/C (HT-29 colon carcinoma; [6]): 28%
- antitumor activity as single agent (Calu-6 lung carcinoma; 100 and 75 mg/kg/day, (5 day on/5 day off)×2): significant antitumor activity
- response in combination with cisplatin (Calu-6 lung carcinoma; in combination with cisplatin): greater than additive responses
- % T/C (Calu-6 lung carcinoma; oral 50 mg/kg/d QD, d 1-21): 54%
- % ILS (Calu-6 lung carcinoma; [5]): 58%
- % T/C (Calu-6 lung carcinoma; [5]): 50%
- % T/C (Calu-6 lung carcinoma; [6]): 37%
- antitumor activity as single agent ([2]; 100 and 75 mg/kg/day (5 days on/5 days off)×2, 50 mg/kg/day daily): dose-dependent antitumor activity
- response in combination with docetaxel ([2]; in combination with docetaxel at 33.3 mg/kg/day): greater than additive responses
- T/C (%) (H-81 gastric cancer): 40%
- T/C (%) (SC-6 gastric cancer): 22%
- T/C (%) (LC-6 lung cancer): 31%
- T/C (%) (LX-1 lung cancer): 37%
- T/C (%) (H-31 breast cancer): 13%
- MTD ([3]; 7-day QD regimen): 250 mg
- MTD ([3]; QD regimen given for 21 days): 200 mg
- dose limiting toxicities of fatigue, anorexia and suspect small bowel obstruction, subjects affected ([3]; human, in vivo): ⅔
- myelosuppression, renal or hepatic toxicity ([3]; human, in vivo): no significant
- dose limiting toxicities of peripheral neuropathy/ileus, subjects affected ([3]; human, in vivo, 7 days): 2 of 6
- ILS (percent increase in life span) [4, 7]: 42%
- T/C (tumor mass of test group divided by tumor mass of control group) [4, 7]: 13%
- antitumor activity in the M5076 model ([4]; in words): significant antitumor activity
